Measured values: US10472418B2, “Composition for preventing or treating lung cancer comprising antibody against CD66C and chemotherapeutic agent” (DINONA, priority 2016, dated 2019)

Tested on: anti-CD66c antibody, AP11
Test: Inhibition of AP11 binding on A549 cells by recombinant antigen, flow cytometry
Details: 10, 50 and 100 μg recombinant antigen conjugated with AP11 before A549 cells
Description: In order to confirm whether the purified recombinant antigen (CD66c-HuIgFc) in the above Example 1-3 acts as CD66c antigen, inhibition of conjugation of anti-CD66c antibody, AP11, on the surface of A549 cells by the above recombinant antigen was confirmed by flow cytometry, and the result is shown in FIG. 6.
Specifically, after conjugating 0, 10, 50 and 100 μg of the above recombinant antigen with AP11 antibody for 30 min at 4° C., it was added to A549 cells and reacted for 30 min at 4° C., added with 3 ml of PBS, centrifuged for 3 min at 1500 rpm and washed. To confirm the conjugated antibody, secondary antibody, goat anti-Mouse IgM FITC (DiNonA) was diluted 200 times, added, reacted for 15 min at 4° C., washed as above with 3 ml of PBS and measured by flow cytometry.

## CD66c-HuIgFc: recombinant antigen linking CD66c 34~340 aa region and human immunoglobulin Fc region CH2-CH3
  blocking of anti-CD66c mAb (AP11) binding to A549 cells: blocking was observed proportional to the treated amount
